Test: physchem
With c1cc(N2CCCn3ccnc32)nc(N2CCCn3ccnc32)c1 [2,6tip2Py, 8,8′-pyridine-2,6-diyl-bis(5,6,7,8-tetrahydroimidazo[1,2-a]pyrimidine)] the pKa was 9.58. With c1cc2ccc3ccc(N4CCCN5CCCN=C54)nc3c2nc1N1CCCN2CCCN=C21 [2,9hpp2Phen, 2,9-bis(1,3,4,6,7,8-hexahydro-2H-pyrimido[1,2-a]pyrimidin-1-yl)-1,10-phenanthroline] the pKa was 13.3. For c1ccc2c(c1)-c1ccccc1C21c2ccccc2-c2ccc(N3CCCN4CCCN=C43)cc21 [2hppSF, 1-(9,9′-spirobi[9H-fluoren]-2-yl)-1,3,4,6,7,8-hexahydro-2H-pyrimido[1,2-a]pyrimidine], the pKa was 13.9. Work on c1cc(-c2ccc3oc4c(-c5cccc(-c6cccc7c6sc6ccccc67)c5)ncnc4c3c2)cc(-c2cccc3c2sc2ccccc23)c1 [4,8mDBtP2Bfpm, 4,8-bis[3-(dibenzothiophen-4-yl)phenyl]-[1]benzofuro[3,2-d]pyrimidine] yielded a pKa of 0.6. In the case of c1cc(N2CCCC2)c2ccc3c(N4CCCC4)ccnc3c2n1 [Pyrrd-Phen, 4,7-di-1-pyrrolidinyl-1,10-phenanthroline], the pKa is reported as 11.2. c1cnc2c(c1)ccc1cccnc12 [phenanthroline, reference compound] showed a pKa of 4.8. In the case of c1cnccn1 [pyrazine, reference compound], the pKa is reported as 0.37.
